Biological target: T1, FLuc-C-HiBiT (Photinus pyralis, UniProt P08659)
T1 construct: firefly luciferase with C-terminal HiBiT tag, E. coli expressed
Test: biochemical
Conditions: enzyme activity, 10 uM ATP; read-out: IC50 or SDR50 (mM) / FLuc E

T1 sequence (P08659 whole entry, looked up): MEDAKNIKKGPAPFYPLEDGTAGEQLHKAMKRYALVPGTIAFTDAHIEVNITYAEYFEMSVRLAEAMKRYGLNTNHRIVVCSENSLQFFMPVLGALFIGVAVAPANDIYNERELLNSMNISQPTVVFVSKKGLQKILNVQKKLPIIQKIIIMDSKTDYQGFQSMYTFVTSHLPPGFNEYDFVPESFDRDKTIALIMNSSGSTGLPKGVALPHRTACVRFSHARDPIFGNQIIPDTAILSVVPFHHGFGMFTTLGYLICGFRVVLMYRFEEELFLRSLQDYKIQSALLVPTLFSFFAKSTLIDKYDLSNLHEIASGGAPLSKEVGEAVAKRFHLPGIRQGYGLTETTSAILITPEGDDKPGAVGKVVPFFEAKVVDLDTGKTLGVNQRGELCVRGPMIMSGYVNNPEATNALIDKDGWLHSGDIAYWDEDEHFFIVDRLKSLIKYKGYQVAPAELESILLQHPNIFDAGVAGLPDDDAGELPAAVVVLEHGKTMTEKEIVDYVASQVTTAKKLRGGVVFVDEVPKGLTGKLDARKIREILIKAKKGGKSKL

SMILES | IC50
COc1ccc2cc(C3CN(C(=O)c4cccc(CO)n4)CCO3)ccc2c1 (centres unmarked) [NCGC00432736-01] | 11.1 µM
c1ccc(COc2cccc(-c3nc4ccccc4s3)c2)cc1 [NCGC00167622-01] | 4.95 µM
COc1ccc(-c2cn3nc(N4CCCC(C(=O)NCc5ccccc5OC)C4)sc3n2)cc1 (centres unmarked) [NCGC00123654-01] | 11.1 µM
c1ccc(CCCc2noc(-c3ccc(NCc4ccccn4)nc3)n2)cc1 [NCGC00440648-01] | > 30 µM
O=C(O)c1cccc(-c2noc(-c3cccc(Cl)c3)n2)c1 [NCGC00168763-01] | 0.007 µM
CCOC(=O)C1(C)C=C(Nc2cccc(C(=O)O)c2)C(=O)N1c1ccccc1 (centres unmarked) [NCGC00100416-01] | 12.4 µM
O=c1[nH]nc2n1CCCCC2 [NCGC00019120-02] | > 30 µM
O=C(Nc1cccc(-c2nc3ccccc3[nH]2)c1)c1ccccc1F [NCGC00099429-01] | 14 µM
O=C(CSc1ccc(F)cc1)Nc1ccccc1-c1nc2ccccc2s1 [NCGC00274247-01] | > 30 µM
CCCOC(=O)CSc1ncnc2sc3c(c12)CCC(C)C3 (centres unmarked) [NCGC00100112-01] | 11.1 µM
CC(C)Oc1ccc(C(=O)Nc2nnc3n2CCS3)cc1 [NCGC00134921-01] | 17.6 µM
Oc1cc(-c2nc3ccccc3s2)cc2c1OCCN(Cc1ncccn1)C2 [NCGC00432964-01] | > 30 µM
O=C(Nc1ccccc1)c1nc2c(o1)CCN(Cc1ccc(F)cc1)CC2 [NCGC00413289-01] | 18 µM
Cc1ccc2[nH]c([C@H]3CCN(Cc4cccs4)C3)nc2c1 [NCGC00397946-01] | 20.2 µM
O=C(NCC1CCCN(C(=O)N2CCCC2)C1)c1ccc(-c2ccccc2)cc1 (centres unmarked) [NCGC00444515-01] | 12.4 µM
Cc1cc(Cl)ccc1-n1ncc2c(N3CCCCC3)ncnc21 [NCGC00651954-01] | 4.42 µM
Brc1ccc(-c2cn3cc(Cc4ccccc4)sc3n2)cc1 [NCGC00102136-01] | 0.881 µM
CC(=O)NC1(C)CN(Cc2ccc(-c3ccc4c(ccn4C)c3)s2)C1 [NCGC00410429-01] | 2.86 µM
CCCc1nn2cc(-c3ccc(C)c(C)c3)nc2s1 [NCGC00117454-01] | 0.624 µM
C[C@H](C(=O)N1CCCC1)C1CC[C@@]2(C)Cc3sc(-c4ccccc4)nc3[C@@H](C)[C@@H]2[C@H]1O (some centres unmarked) [NCGC00401417-01] | 1.97 µM
CC1CCCN(c2ncnc3c2cnn3-c2ccccc2)C1 (centres unmarked) [NCGC00081381-02] | 0.442 µM
O=C(Nc1nc2c(F)cc(F)cc2s1)c1ccc2c(c1)OCCO2 [NCGC00134168-01] | 1.76 µM
COc1ccc(C(=O)Nc2ccc(-c3nc4ccccc4s3)cc2C)cc1Cl [NCGC00102365-01] | > 30 µM
Cc1cccc(OCCn2nnc3sc4c(c3c2=O)CCCC4)c1 [NCGC00117282-01] | 12.4 µM
O=C(NCc1ccc(F)cc1)Nc1cccc(-c2ccc(N3CCOCC3)nn2)c1 [NCGC00427604-01] | 1.76 µM

SMILES | IC50
CCN(CC)CCOc1ccc(-c2nc3cc(Cl)ccc3s2)cc1 [NCGC00160568-01] | 25.4 µM
COc1ccc(-c2nc3cc(F)ccc3s2)cc1OC [NCGC00344018-01] | 1.57 µM
COc1ccccc1C(=O)NCCn1ccn2nc(-c3ccc(C)cc3C)cc2c1=O [NCGC00456987-01] | 9.89 µM
O=C(Nc1ccccc1)c1nc2c(o1)CCN(Cc1ccccn1)CC2 [NCGC00413398-01] | 18 µM
CCOP(=O)(Cc1ccc(-c2nc3ccccc3s2)cc1)OCC [NCGC00538319-01] | 11.1 µM
Cc1c(-c2ccccc2)[nH]c2c(CNC(=O)C3=NN(C)C(=O)CC3)cc(Cl)cc12 [NCGC00439904-01] | 12.4 µM
Cc1nc(C)c(C(=O)N2CCC(Oc3ccc(-c4noc(-c5ccccc5)n4)cc3)C2)s1 (centres unmarked) [NCGC00440995-01] | 11.1 µM
COc1cccc(Nc2cc3c(cn2)CN(C(C)=O)CCN3)c1 [NCGC00411096-01] | 9.04 µM
CCOc1ccc(NC(=O)CCc2c(C)nc3cc(-c4ccc(Cl)cc4)nn3c2C)cc1 [NCGC00110024-01] | 2.79 µM
N#Cc1c(-n2ncnc2-c2cccc(Cl)c2)sc2c1CCCCC2 [NCGC00099368-01] | 1.97 µM
Cn1ccc2c(C(=O)NCCc3c[nH]cn3)nc(-c3ccc(N4CCOCC4)cc3)cc21 [NCGC00411589-01] | 4.53 µM
CCOC(=O)c1cc(-c2ccccc2)nn1Cc1ccccc1 [NCGC00108381-01] | > 30 µM
O=C(Nc1ccc2c(c1)OCO2)c1cccc2c1CCN2C(=O)Nc1ccc(F)cc1 [NCGC00430184-01] | 0.197 µM
COc1cc(C)ccc1OCc1cc(C(=O)NCc2n[nH]c3c2CCC3)no1 [NCGC00433000-01] | 12.4 µM
Cc1ccccc1CN1CC[C@H](c2nc3cc(F)ccc3[nH]2)C1 [NCGC00396601-01] | 25.5 µM
CSc1ccc(/C=C/c2nc3ccccc3n2[S+](=O)([O-])c2ccc(F)c(C)c2)cc1 [NCGC00139450-01] | 0.7 µM
COc1ccc2oc(=O)c(C(=O)Nc3cccc(C(=O)O)c3)cc2c1 [NCGC00100698-01] | 0.0157 µM
OC1CN(Cc2ccc(-c3cnc4c(OCc5ccccc5)nccn34)cc2)C1 [NCGC00414051-01] | 20.2 µM
Cc1ccc(-c2noc(-c3nc(C(C)C)no3)n2)cc1 [NCGC00450102-01] | 11.1 µM
CC(=O)c1cccc(NC(=O)c2nc3ccccc3n(C)c2=O)c1 [NCGC00107713-01] | 3.13 µM
CC(C)Oc1cccc(-c2cccc(COc3ccc4c(cnn4CC[S+](C)(=O)[O-])c3)c2)c1 [NCGC00418050-01] | 11.1 µM
O=C(Nc1ccc(-c2nc3ccccc3s2)c(O)c1)c1ccccc1F [NCGC00594666-01] | > 30 µM
COc1cccc2cc(C(=O)Nc3ccc(C)cc3)c(=O)oc12 [NCGC00099361-01] | 0.495 µM
O=C(O)c1ccc(-c2noc(-c3ccc(F)cc3)n2)cc1 [NCGC00168098-01] | 0.442 µM
CCCc1ccc(OCc2ccc(C(=O)Nc3ccccc3C(=O)OC)o2)cc1 [NCGC00101032-01] | 12.4 µM

The next lines start with the values.

IC50 | SMILES
3.94 µM | COc1ccc(-c2cc(N3CCCC(NC(=O)c4ccc(OC)c(OC)c4)C3)[nH]n2)cc1 (centres unmarked) [NCGC00437624-01]
2.79 µM | Cc1cc(F)ccc1NC(=O)c1csc2c1CCC(C)C2 (centres unmarked) [NCGC00112512-01]
11.1 µM | O=C(Nc1nn(-c2cccc(F)c2)c2cccc(N3CCOCC3)c12)C1CCC1 [NCGC00440498-01]
9.89 µM | Cc1cn2nc(C(=O)Nc3ccc4c(c3)OCCO4)cc2c(N(C)Cc2ccccc2)n1 [NCGC00454161-01]
12.4 µM | O=C(O)c1ccc(-c2noc(-c3ccccc3C(F)(F)F)n2)cc1 [NCGC00168105-01]
> 30 µM | O=C1c2cnc(-c3ccccc3)nc2OCCN1Cc1ccccc1 [NCGC00413632-01]
6.24 µM | O=C(NC1CCN(c2cc(-c3ccc(F)cc3)n[nH]2)C1)c1cc2ccccc2[nH]1 (centres unmarked) [NCGC00437958-01]
9.89 µM | CC(=O)Nc1cccc(C(=O)NCCn2ccn3nc(-c4ccc(C)cc4C)cc3c2=O)c1 [NCGC00456962-01]
> 30 µM | O=C(Nc1cccc(-c2nc3ccccc3s2)c1)c1cc2ccccc2oc1=O [NCGC00688715-01]
12.8 µM | Cc1csc(NC(=O)c2nc3c(o2)CCN(Cc2ccccc2F)CC3)n1 [NCGC00413264-01]
5.56 µM | CCNc1cc(N2CCC(CCC(=O)O)CC2)ncn1 [NCGC00432807-01]
> 30 µM | O=C(CSc1nnc2ccccn12)Nc1cccc(-c2nc3ccccc3s2)c1 [NCGC00688053-01]
16.1 µM | Cc1cc(-c2cc3c(cn2)CN(Cc2nccn2C)CCN3)ccn1 [NCGC00411046-01]
2.48 µM | CC(C)(C)C1CCc2nc(NC(=O)c3cccc(Cl)c3)sc2C1 (centres unmarked) [NCGC00119231-01]
1.57 µM | COc1ccc(-c2cn3nc(SCC(=O)Nc4ccccc4F)ccc3n2)cc1 [NCGC00134464-01]
12.4 µM | O=C1OCCN1CCNc1ccc(-c2nc(-c3ccccc3F)no2)cn1 [NCGC00428584-01]
12.4 µM | CN1c2cc(C(=O)Nc3cccc(F)c3)ccc2C(=O)N2CCCCCC21 (centres unmarked) [NCGC00452183-01]
9.89 µM | COc1ccc(C(=O)Nc2cc(-c3nc4ccccc4s3)ccc2OC)cc1 [NCGC00103028-01]

IC50 | SMILES
2.21 µM | Cc1ccc(-c2nnc(SCc3ccccc3C#N)o2)cc1 [NCGC00103157-01]
8.81 µM | CC(=O)Oc1ccccc1C(=O)Nc1ccc(-c2nc3ccc(C)cc3s2)cc1 [NCGC00596510-01]
12.4 µM | Cc1cc2c(c(-c3nc4ccccc4s3)c1)OC(CNC(=O)c1occc1C)C2 (centres unmarked) [NCGC00240406-01]
11.1 µM | CN(C)c1ccc(-c2nc3ccccn3c2Nc2ccc3c(c2)OCCO3)cc1 [NCGC00106568-01]
18 µM | O=C(NCCC1CCCCC1)c1c[nH]c2ncccc12 [NCGC00480521-01]
1.97 µM | Cc1cc(NC(=O)c2ccc(CN3CC[C@H](O)C3)cc2)ccc1F [NCGC00432832-01]
12.4 µM | Cc1ncc(CC(=O)NCc2ccc3[nH]c(-c4ccccc4F)c(C)c3c2)c(=O)[nH]1 [NCGC00436691-01]
3.51 µM | Cc1ccc2nc(-c3cccc(NC(=O)CSc4ccc(Cl)cc4)c3)oc2c1 [NCGC00102431-01]
2.79 µM | COc1ccc(C(=O)NCCn2cccc2-c2nc(-c3ccccc3)no2)cc1 [NCGC00445570-01]
7 µM | Cc1ccc(-c2cc3c(=O)n(CCNC(=O)c4ccc(C)s4)ccn3n2)c(C)c1 [NCGC00456966-01]
2.48 µM | Cc1cc(-c2nc3cc(F)ccc3s2)ccc1NC(=O)[C@@H](N)CCCCN [NCGC00379246-02]
9.89 µM | Cc1cn2nc(C(=O)Nc3ccc(C(=O)N4CCCC4)cc3)cc2c(=O)[nH]1 [NCGC00453923-01]
0.197 µM | Cc1ccc(-n2ncc3c(N4CCCCCC4)ncnc32)cc1 [NCGC00139018-01]
7 µM | Fc1cccc(Nc2nc(-c3ccccc3)no2)c1 [NCGC00422294-01]
9.89 µM | COc1ccc(NC(=O)Nc2ccc(C)n(CC(=O)O)c2=O)cc1 [NCGC00432735-01]
0.00351 µM | O=C(O)c1cccc(-c2noc(-c3ccccc3Cl)n2)c1 [NCGC00168762-01]
5.56 µM | O=C(Nc1cccc(-c2ccc(N3CCOCC3)nn2)c1)Nc1cccc(Cl)c1F [NCGC00427620-01]
0.00442 µM | O=C(O)c1cccc(-c2noc(-c3ccc(F)cc3)n2)c1 [NCGC00168761-01]
